Measurements reported in US6436924B1, “Antihistamine leukotriene combinations” (ASTA Medica AG, priority 2000, dated 2002).

System: nasal mucosal permeability in actively sensitized and topically provoked brown Norway rats
Experiment: Rhinitis model: nasal mucosal permeability (Evans Blue plasma extravasation) after ovalbumin provocation
Type: in vivo
From the text: The following pharmacological investigation describes the action of azelastine and montelukast on their own and in combination on a rhinitis model on brown Norway rats. The brown Norway rats were actively sensitized by double i.p. injection of a suspension of ovalbumin and aluminum hydroxide in physiological saline solution on two successive days. Three weeks after sensitization, a catheter was tied into the trachea of the animals in orthograde manner under sodium thiopental anesthesia to maintain the respiration of the animals and a further catheter was advanced in a retrograde manner through the trachea up to the internal opening of the choanas for the perfusion of the nasal cavities and fixed. The nasal perfusate can thus trickle out through the nasal cavities and be accepted by a fraction collector. The test substances were either suspended in Tylose (montelukast) or dissolved in physiological saline solution (azelastine) and injected intraperitoneally 60 min before allergen provocation. PBS was perfused through the nasal cavity for 30 min using a roller pump (perfusion rate 0.5 ml/min) to rinse mucus away from the nose. In the case of topical application, the test substances are added to the perfusate in molar concentration and the solution is perfused through the nose for 30 min before allergen provocation. The plasma marker Evans Blue (1 ml/animal each of a 1% strength solution in PBS) was then injected into the jugular vein. The perfusion was collected during a 15 min break. The allergen provocation (challenge) was then carried out by perfusion of the nasal cavity with a solution of ovalbumin in PBS (10 mg/ml of ovalbumin in PBS) for 60 min, during which the perfusate was collected in the fraction collector in 15 min fractions. The total amount of the samples/animal was 5. The samples were centrifuged and then applied to microtiter plates and measured at a wavelength of 620 nm using the Digiscan photometer. The blank values were automatically subtracted. The course of action over 60 min was calculated using an AUC program. The substance action of the preparation group was calculated in % against vehicle controls.
An increased mucosal permeability after allergen provocation is to be assessed as a sign of the release of messengers such as histamine and leukotrienes. After antigen contact, this phenomenon occurs even in allergic people and is manifested by increased fluid secretion and nasal blockage.

[1] = 0.1 mg/kg i.p., 60 min before allergen provocation
[2] = 1 mg/kg i.p., 60 min before allergen provocation

CC(C)(O)c1ccccc1CC[C@@H](SCC1(CC(=O)O)CC1)c1cccc(/C=C/c2ccc3ccc(Cl)cc3n2)c1 [Montelukast]
Inhibitory action in % (nasal mucosal permeability) [1]: 7% | Inhibitory action in % (nasal mucosal permeability) [2]: 26% | Inhibitory action in % (nasal mucosal permeability) (3 mg/kg i.p., 60 min before allergen provocation): 39% | Inhibitory action in % (nasal mucosal permeability) (10 mg/kg i.p., 60 min before allergen provocation): 44% | Inhibitory action in % (nasal mucosal permeability) (30 mg/kg i.p., 60 min before allergen provocation): 58%

COc1ccc2c(c1)c(O)nn2Cc1ccc(OCc2ccc3ccccc3n2)cc1.Cl.Cl [AWD 23-115, 1-[4-(quinolin-2-ylmethoxy)benzyl]-5-methoxy-1H-indazol-3-ol dihydrochloride]
dose-dependent inhibition of the vascular permeability (dose range of 0.03 to 10 mg/kg i.p.): 37-54% | Inhibitory action in % (nasal mucosal permeability) (topical application in the perfusate, 0.1 mmol/l): 12% | Inhibitory action in % (nasal mucosal permeability) (topical application in the perfusate, 0.3 mmol/l): 32% | Inhibitory action in % (nasal mucosal permeability) (topical application in the perfusate, 1 mmol/l): 49% | inhibition of the vascular permeability (topical application, 0.3 μmol/l): 32% | inhibition of the vascular permeability (topical application, 1 μmol/l): 49%

CN1CCCC(n2nc(Cc3ccc(Cl)cc3)c3ccccc3c2=O)CC1 (centres unmarked) [Azelastine]
Inhibitory action in % (nasal mucosal permeability) (0.01 mg/kg i.p., 60 min before allergen provocation): 11% | Inhibitory action in % (nasal mucosal permeability) [1]: 39% | Inhibitory action in % (nasal mucosal permeability) (0.3 mg/kg i.p., 60 min before allergen provocation): 42% | Inhibitory action in % (nasal mucosal permeability) [2]: 47% | Inhibitory action in % (nasal mucosal permeability) (topical application in the perfusate, 0.003 mmol/l): 3% | Inhibitory action in % (nasal mucosal permeability) (topical application in the perfusate, 0.01 mmol/l): 40% | Inhibitory action in % (nasal mucosal permeability) (topical application in the perfusate, 0.03 mmol/l): 60% | inhibition of the mucosal plasma extravasation (topical application, concentrations of 0.003 to 0.03 μmol/l): strong inhibition

O=C(O)[C@@H](c1ccc(OCc2ccc3ccccc3n2)cc1)C1CCCC1 [Bay X 1005]
Inhibitory action in % (nasal mucosal permeability) [1]: 31%
